Consider 26 compounds from PubChem BioAssay (NCI).

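Step 1: Grow cells in 96-well plates. Step 2: Expose to compound for 48 hours at 5 concentrations. Step 3: Interpolate endpoints linearly; if unreached, use highest concentration. At the GI50, growth is halved. At the TGI there is no net growth.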

Common to all, as to experiment: NCI anticancer screen, dose series, 48 h
The subject of assay [1] is ACHN renal.
In assay [2] the test system is CCRF-CEM leukemia.
Assay [3] has as its system HL-60(TB) leukemia.
Assay [4] has as its system KM12 colon.
Assay [5] concerns NCI-H23 lung.
The test system of assay [6] is SF-539 CNS.
In assay [7] the test system is SN12C renal.
Assay [8] has as its system NCI-H226 lung.
In assay [9] the test system is OVCAR-5 ovarian.
Assay [10] has as its system TK-10 renal.

Turning to `CCOC(=O)/C=C1\Nc2ccccc2C(c2ccccc2)=NC1OC(C)=O` (stereo not drawn), the TGI in [1], in [2], in [3], in assay [4], in [5] and in assay [6] was greater than 100 µM throughout. The compound further gave a TGI in assay [7] greater than 100 µM.
Consider `CC1=NN(C(=O)CC(=O)Nc2cccc(Cl)c2)C(=O)C1N=Nc1ccc(S(N)(=O)=O)cc1` (stereo not drawn), for which the TGI in assay [1], in [4], in [8], in assay [5], in assay [9] and in assay [6] was greater than 100 µM throughout. The TGI in assay [7] and in assay [10] was greater than 100 µM each time.
`Cc1nnc([S-])s1.[Au+].c1ccc([PH+](c2ccccc2)c2ccccc2)cc1`: the GI50 was 1.86 µM in [1]; 2.04 µM in assay [2]; 1.85 µM in assay [3]; 1.83 µM in [4]; 1.7 µM in assay [9]; 1.63 µM in assay [6]. For the same compound, the GI50 in assay [10] is 1.83 µM. Also, the TGI was 3.26 µM in [1]; 6.91 µM in [2]; 5.51 µM in [3]; 3.41 µM in [4]; 3.13 µM in [9]; 3 µM in assay [6]. The same compound displayed a TGI in [10] of 3.32 µM.
Turning to `COC(=O)/C(=N\NC(=O)c1ccccc1O)C(C#N)c1ccc(Cl)cc1` (stereo not drawn), the TGI was greater than 100 µM in assay [1]; greater than 100 µM in assay [2]; greater than 100 µM in [3]; greater than 100 µM in [4]; 76 µM in assay [5]; 90.3 µM in [9]. In addition, the TGI in assay [6], in assay [7] and in assay [10] was greater than 100 µM throughout.
`C/C(=N\NS(=O)(=O)c1ccc(C)cc1)c1ccc[n+]([O-])n1`: the TGI is greater than 100 µM in assay [1]; 82.5 µM in [2]; 91 µM in assay [3]; greater than 100 µM in [4]; greater than 100 µM in assay [5]; greater than 100 µM in [9]. Further, the TGI in [6] and in assay [7] was greater than 100 µM in each case.
`COc1cccc(-c2nn(-c3ccccc3)cc2-c2ccnc(NCCNC(=O)Nc3ccc(Cl)c(Cl)c3)c2)c1`: the GI50 in assay [1] is 2.79 µM; in assay [3], 2.43 µM; in assay [4], 2.27 µM; in assay [8], 3.63 µM; in assay [5], 2.46 µM; in assay [9] it was 2.25 µM. The GI50 in assay [6] is 1.93 µM; in [7], 2.39 µM; in assay [10], 4.78 µM. Also, the TGI in [1] was 10.2 µM; in assay [3], 6.85 µM; in [4], 5.79 µM; in assay [8], 18.7 µM; in assay [5] it was 11.6 µM; in assay [9], 10.1 µM. Also, the TGI in [6] came out at 4.17 µM; in [7], 5.96 µM; in [10], 18.9 µM.
With `c1ccc2c(c1)CCCc1cc3ccccc3nc1-2`, the TGI in assay [1], in [2], in [4], in assay [5], in assay [9] and in [6] was greater than 100 µM in each case. Moreover, the TGI in assay [7] and in assay [10] was greater than 100 µM throughout.
For the compound `N#Cc1c2c(c(N=[N+]=[N-])n3c1nc1ccccc13)CCCC2`, the TGI in assay [1] stood at 5.46 µM; in assay [3], 8.6 µM; in assay [4], 5.53 µM; in assay [8], 3.35 µM; in assay [5] it was 6.27 µM; in [9], 16.8 µM. Moreover, the TGI amounted to 3.66 µM in assay [6], 4.22 µM in [7] and 5.76 µM in assay [10].
Take `NC(Cc1nn[nH]n1)C(=O)O` (stereo not drawn): the TGI in assay [1], in assay [2], in assay [4], in assay [8], in assay [5] and in assay [9] was greater than 100 µM throughout. For the same compound, the TGI in assay [6], in assay [7] and in assay [10] was greater than 100 µM each time.
In the case of `CC(C)c1ccc(/C=C(\NC(=O)c2ccccc2)c2nc3ccccc3[nH]2)cc1`, the TGI in [1] is greater than 100 µM; in assay [2], greater than 100 µM; in assay [4] it was greater than 100 µM; in [8], greater than 100 µM; in [5], 75.3 µM; in [9] it was greater than 100 µM. Also, the TGI in [6], in assay [7] and in assay [10] was greater than 100 µM throughout.
For `Cc1nnc2n1N=C(CC(=O)c1ccc(O)cc1O)CN2N`, the TGI in assay [1], in [2], in assay [3], in [4], in assay [5] and in assay [9] was greater than 100 µM in each case. Further, the TGI in assay [6], in [7] and in [10] was greater than 100 µM throughout.
For the compound `O=C1OCC(C(=O)c2cccc(O)c2)C1=O` (stereo not drawn), the TGI in assay [1], in [4], in assay [8], in assay [5], in [9] and in assay [6] was greater than 100 µM throughout. Moreover, the TGI in assay [7] and in [10] was greater than 100 µM in each case.
As to `CC(CC(=O)O)(CC(=O)O)C(=O)O`, the TGI in [1], in [4], in [5], in [9], in assay [6] and in [7] was greater than 100 µM each time. In addition, the TGI in [10] was greater than 100 µM.
On to `O=C1c2ccccc2-c2cc3ccccc3c(=O)n21`, for which the TGI in assay [1], in [2], in [4], in assay [5], in assay [9] and in assay [6] was greater than 100 µM in each case. The TGI in assay [7] and in assay [10] was greater than 100 µM each time.
Regarding `c1ccc(SCCCC(Sc2ccccc2)Sc2ccccc2)cc1`, the TGI in assay [1], in assay [2], in [3], in assay [4], in [5] and in [6] was greater than 100 µM throughout. Moreover, the TGI in [7] and in [10] was greater than 100 µM each time.
On to `O=c1oc(-c2ccc(O)c(O)c2)cc2cc(O)cc(O)c12`, for which the GI50 in assay [1] is 45.3 µM; in assay [2] it was 3.39 µM; in [4], 28.6 µM; in [5] it was 35.2 µM; in [9] it was 36.7 µM; in assay [6], 26.7 µM. Further, the GI50 in assay [7] is 43 µM; in assay [10] it was 30.5 µM. Moreover, the TGI was greater than 100 µM in assay [1]; greater than 100 µM in [2]; greater than 100 µM in assay [4]; greater than 100 µM in assay [5]; greater than 100 µM in assay [9]; 91.5 µM in [6]. In addition, the TGI in assay [7] and in assay [10] was greater than 100 µM each time.
Take `CC(=O)[CH-]C(=O)c1ccccc1.CC(=O)[CH-]C(=O)c1ccccc1.[O]=[U+2]=[O]`: the GI50 in assay [1] is 33.6 µM; in assay [2], 27.8 µM; in [3] it was 29.6 µM; in assay [4], 3.67 µM; in assay [5], 46.9 µM; in assay [9] it was greater than 100 µM. Moreover, the GI50 in assay [7] is 56 µM; in [10] it was 37.8 µM. For the same compound, the TGI in assay [1] is greater than 100 µM; in assay [2], greater than 100 µM; in assay [3], 80.3 µM; in [4], 9.83 µM; in assay [5] it was greater than 100 µM; in assay [9] it was greater than 100 µM. The TGI in assay [7] and in assay [10] was greater than 100 µM each time.
Take `O=C1c2cccnc2C(=O)c2c1c(C(=O)OCCCN1CCOCC1)c1ccccn21`: the GI50 in assay [2] was 0.0493 µM; in assay [3], 0.0361 µM; in assay [4], 0.0333 µM; in assay [5] it was less than 0.01 µM; in [9] it was 0.0794 µM; in assay [6] it was less than 0.01 µM. Moreover, the GI50 in assay [7] is less than 0.01 µM; in [10], 0.0292 µM. Further, the TGI in [3] was determined as 2.76 µM; in assay [4], 15.4 µM; in assay [9], 4.73 µM; in [6], 0.0372 µM; in [7], 1.82 µM; in assay [10], 5.57 µM.
Regarding `CC1OC(=O)N(CCCC=C2SCCCS2)C1=O` (stereo not drawn), the TGI in assay [1], in assay [2], in assay [4], in assay [8], in assay [5] and in [9] was greater than 100 µM in each case. The TGI in [6], in assay [7] and in assay [10] was greater than 100 µM in each case.
With `COC(=O)/C(C#N)=C1\N=NNN1CCCN1CCOCC1`, the TGI in [1], in assay [2], in assay [4], in assay [8], in assay [5] and in [6] was greater than 100 µM throughout. Besides, the TGI in assay [7] and in [10] was greater than 100 µM in each case.
Consider `CC[C@@]1(OC(=O)CN)C(=O)OCc2c1cc1n(c2=O)Cc2cc3cc(N)ccc3nc2-1`, for which the GI50 was less than 0.01 µM in assay [1]; less than 0.01 µM in assay [2]; 0.12 µM in assay [4]; less than 0.0152 µM in assay [8]; less than 0.01 µM in assay [5]; 0.15 µM in assay [9]. Further, the GI50 is less than 0.01 µM in assay [6], less than 0.01 µM in assay [7] and 2.19 µM in assay [10]. In addition, the TGI is 0.151 µM in [1]; 0.811 µM in assay [4]; 0.388 µM in assay [8]; 0.0246 µM in assay [5]; 0.0126 µM in assay [6]; greater than 100 µM in assay [7]. In addition, the TGI in assay [10] is greater than 100 µM.
For `CCOC(=O)CCC1(C(=O)OC)CCCC1=O` (stereo not drawn), the TGI in assay [1], in assay [3], in assay [4], in assay [5], in [9] and in [6] was greater than 100 µM each time. This compound also showed a TGI in assay [10] greater than 100 µM.
Turning to `CC[C@]12C=CCN3CC[C@]4(C(=C(C(=O)OC)C1)Nc1cc(O)ccc14)[C@@H]32`, the GI50 was 18.5 µM in [1]; 25.3 µM in assay [2]; 25.8 µM in assay [3]; 13.1 µM in assay [4]; 16.8 µM in assay [5]; 19.8 µM in assay [9]. For the same compound, the figures for the GI50 in assay [6], in assay [7] and in assay [10] were 15.1 µM, 15.4 µM and 30.8 µM, respectively. Further, the TGI was 41.4 µM in assay [1]; greater than 100 µM in [2]; 72.5 µM in assay [3]; 30.6 µM in assay [4]; 37.7 µM in [5]; 57 µM in assay [9]. Moreover, the TGI came to 30.1 µM in assay [6], 29.7 µM in [7] and 99.7 µM in assay [10].
Take `O=C(Oc1c(I)ccccc1=O)c1ccc([N+](=O)[O-])cc1`: the TGI was 68.5 µM in [1]; greater than 100 µM in [2]; 46.5 µM in [3]; 35.6 µM in assay [4]; 99.6 µM in assay [5]; greater than 100 µM in assay [9]. Moreover, the values for the TGI in assay [6], in [7] and in assay [10] were 37.6 µM, 67.9 µM and greater than 100 µM, respectively.
For `O=C(OCc1ccccc1CN1CCOCC1)c1ccc(Br)cc1`, the TGI in assay [1], in assay [8], in [5], in assay [9], in assay [6] and in [7] was greater than 100 µM in each case. In assay [10], this compound gave a TGI greater than 100 µM.
Take `CCC1OCCN1C(C)C` (stereo not drawn): the TGI in assay [1], in [2], in [3], in [4], in assay [5] and in assay [9] was greater than 100 µM each time. Moreover, the TGI in assay [6], in [7] and in [10] was greater than 100 µM in each case.
